Data on 35 compounds can be found in US20130303507A1 (Novartis AG, priority 2011, published 2013).

In one assay the test system is neointima formation. As to conditions: in rats; cited from earlier work.
A further assay deals with Cdk9/cyclinT1 (Homo sapiens, UniProt P50750). In words: Cdk9/cyclinT1 Alpha Screen protocol. It is filed as biochemical. The arrangement: Full length wild type Cdk9/cyclin T1 is purchased from Invitrogen; purchased Invitrogen PV4131. The conditions noted are these: individual determinations, read-out: CDK9_cyclinT1_AS2_IC50. As to the method:
Cdk9/cyclinT1 Alpha Screen Protocol
Full length wild type Cdk9/cyclin T1 is purchased from Invitrogen, cat#PV4131. […] The cdk7tide peptide substrate, biotin-[…] -OH, is a custom synthesis purchased from the Tufts University Core Facility. The final concentration of cdk7tide peptide substrate is 200 nM. […] Phospho-Rpb1 CTD (ser2/5) substrate antibody is purchased from Cell Signaling Technology. The final concentration of antibody is 0.67 ug/ml. The Alpha Screen Protein A detection kit containing donor and acceptor beads is purchased from PerkinElmer Life Sciences. The final concentration of both donor and acceptor beads is 15 ug/ml. Alpha Screen is used for detection. […] The biotinylated-cdk7tide peptide substrate is bound to the streptavidin coated donor bead. The antibody is bound to the protein A coated acceptor bead. The antibody will bind to the phosphorylated form of the biotinylated-cdk7tide peptide substrate, bringing the donor and acceptor beads into close proximity. Laser irradiation of the donor bead at 680 nm generates a flow of short-lived singlet oxygen molecules. When the donor and acceptor beads are in close proximity, the reactive oxygen generated by the irradiation of the donor beads initiates a luminescence/fluorescence cascade in the acceptor beads. This process leads to a highly amplified signal with output in the 530-620 nm range. Assays are carried out in 50 mM Hepes, pH=7.5, 10 mM MgCl2, 0.1% Bovine Serum Albumin, 0.01% Tween-20, 1 mM Dithiothreitol, 2.5% Dimethyl Sulfoxide. Stop and detection steps are combined using 50 mM Hepes, pH=7.5, 18 mM EDTA, 0.1% Bovine Serum Albumin, 0.01% Tween-20.

The structures appear in SMILES notation. “And” between values parts separate entries of the source, which are not always exact repeats. Identical values can stand only once. Like-named read-outs stand apart in the source and are kept apart here.

Cdk9/cyclinT1, sequence (P50750 whole entry): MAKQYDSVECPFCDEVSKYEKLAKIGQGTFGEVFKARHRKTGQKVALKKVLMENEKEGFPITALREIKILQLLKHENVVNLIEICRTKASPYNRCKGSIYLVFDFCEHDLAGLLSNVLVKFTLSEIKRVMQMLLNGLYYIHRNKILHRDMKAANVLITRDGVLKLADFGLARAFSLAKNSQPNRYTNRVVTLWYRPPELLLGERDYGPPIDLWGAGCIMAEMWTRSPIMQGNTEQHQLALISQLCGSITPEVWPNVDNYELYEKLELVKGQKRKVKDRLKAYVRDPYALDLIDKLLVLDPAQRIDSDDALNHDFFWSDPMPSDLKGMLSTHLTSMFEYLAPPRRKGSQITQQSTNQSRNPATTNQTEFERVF
Cdk9/cyclinT1, sequence (O60563 whole entry partner): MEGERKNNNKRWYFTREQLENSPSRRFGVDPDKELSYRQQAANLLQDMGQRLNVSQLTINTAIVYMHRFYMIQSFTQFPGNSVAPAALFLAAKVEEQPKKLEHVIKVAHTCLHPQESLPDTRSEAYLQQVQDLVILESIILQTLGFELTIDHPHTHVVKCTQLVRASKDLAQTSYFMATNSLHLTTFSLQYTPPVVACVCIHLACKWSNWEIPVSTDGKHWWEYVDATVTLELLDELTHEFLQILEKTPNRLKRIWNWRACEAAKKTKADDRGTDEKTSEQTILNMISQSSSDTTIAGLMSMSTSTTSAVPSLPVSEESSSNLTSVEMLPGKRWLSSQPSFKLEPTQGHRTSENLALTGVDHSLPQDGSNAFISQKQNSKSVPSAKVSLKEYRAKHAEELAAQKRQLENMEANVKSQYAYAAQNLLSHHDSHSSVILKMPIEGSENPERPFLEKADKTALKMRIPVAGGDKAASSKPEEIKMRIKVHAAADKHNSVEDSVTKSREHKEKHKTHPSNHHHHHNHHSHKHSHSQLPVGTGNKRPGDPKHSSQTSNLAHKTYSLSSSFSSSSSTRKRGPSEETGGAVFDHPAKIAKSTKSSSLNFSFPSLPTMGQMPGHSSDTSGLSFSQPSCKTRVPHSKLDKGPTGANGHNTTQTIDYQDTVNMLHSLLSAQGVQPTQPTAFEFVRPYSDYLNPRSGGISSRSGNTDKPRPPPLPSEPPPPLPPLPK

On to `COc1ccc(CNc2nc(N(CCO)CCO)nc3c2ncn3C(C)C)cc1` [CVT-313], for which the “inhibition of neointima formation” value in the assay on neointima formation is given as “greater than 80%”.

Turning to `COC[C@H](C)N[C@H]1CC[C@H](Nc2cc(-c3cncc(OCC4(C#N)CCOCC4)n3)c(Cl)cn2)CC1` [Compound 586], at Cdk9/cyclinT1 (neutral species), the IC50 is 1 nM.

Regarding `CC(O)(CN[C@H]1CC[C@H](Nc2cc(-c3cccc(NCC4(C#N)CCOCC4)n3)c(Cl)cn2)CC1)C(F)(F)F` (stereo partly shown) [Compound 539], on Cdk9/cyclinT1 (neutral species), the IC50 was 0.537 nM and 0.466 nM.

As to `COC[C@@H](C)N[C@H]1CC[C@@H](Nc2cc(-c3cccc(NCC4(C#N)CCOCC4)n3)c(Cl)cn2)CC1` [Compound 601], the IC50 on Cdk9/cyclinT1 (neutral species) was found to be 25 nM.

Consider `COCCN[C@H]1CC[C@H](Nc2cc(-c3cncc(OCC4(C#N)CC4)n3)c(F)cn2)CC1` [Compound 556], for which the IC50 on Cdk9/cyclinT1 (neutral species) worked out at 0.628 nM.

Turning to `CC(C)(O)CN[C@H]1CC[C@H](Nc2cc(-c3cccc(NCC4(C#N)CCOCC4)n3)c(Cl)cn2)CC1` [Compound 521], the IC50 at Cdk9/cyclinT1 (neutral species) came to 0.475 nM.

Turning to `COC[C@H](C)N[C@H]1CC[C@H](Nc2cc(-c3cccc(NCC4(C#N)CC4)n3)c(F)cn2)CC1` [Compound 566], the IC50 on Cdk9/cyclinT1 (TFA salt) was 0.787 nM and 0.846 nM.

For the compound `COC[C@H](C)N[C@H]1CC[C@H](Nc2cc(-c3cccc(NCC4(C#N)CC4)n3)c(F)cn2)CC1` [Compound 587], the IC50 at Cdk9/cyclinT1 (neutral species) was 1 nM.

As for `CO[C@H]1CCN([C@H]2CC[C@@H](Nc3cc(-c4cccc(NCC5(C#N)CCOCC5)n4)c(F)cn3)CC2)C1` [Compound 517], the IC50 on Cdk9/cyclinT1 (neutral species) came to 8.61 nM.

As to `COCC(C)N[C@H]1CC[C@@H](Nc2cc(-c3cccc(NCC4(C#N)CCOCC4)n3)c(Cl)cn2)CC1` (stereo partly shown) [Compound 603], the IC50 on Cdk9/cyclinT1 (neutral species) came to 5.6 nM.

Turning to `[2H]C([2H])([2H])OCC(C)N[C@H]1CC[C@H](Nc2cc(-c3cncc(OCC4(C#N)CCOCC4)n3)c(Cl)cn2)CC1` (stereo partly shown) [Compound 595], on Cdk9/cyclinT1 (neutral species), the IC50 is < 1 nM.

As to `COC[C@H](C)NC[C@H]1CC[C@H](Nc2cc(-c3cccc(NCC4(C#N)CCOCC4)n3)c(Cl)cn2)CC1` [Compound 533], the IC50 on Cdk9/cyclinT1 (TFA salt) was 0.867 nM.

With `COCCN(C1CC1)[C@H]1CC[C@H](Nc2cc(-c3cncc(OCC4(C#N)CCOCC4)n3)c(F)cn2)CC1` [Compound 555], the IC50 at Cdk9/cyclinT1 (neutral species) is 2.13 nM.

For the compound `N#CC1(CNc2cccc(-c3cc(N[C@H]4CC[C@@H](N5CCCOCC5)CC4)ncc3Cl)n2)CCOCC1` [Compound 538], the IC50 on Cdk9/cyclinT1 (TFA salt) was 19.8 nM and 20.9 nM.

Consider `N#CC1(CNc2cccc(-c3cc(N[C@H]4CC[C@H](NCC5(O)CC5)CC4)ncc3Cl)n2)CCOCC1` [Compound 560], for which, at Cdk9/cyclinT1 (neutral species), the IC50 was 0.481 nM.

`CO[C@H]1CCN([C@H]2CC[C@H](Nc3cc(-c4cccc(NCC5(C#N)CCOCC5)n4)c(Cl)cn3)CC2)C1` [Compound 514]: the figures for the IC50 at Cdk9/cyclinT1 (TFA salt) and at Cdk9/cyclinT1 (neutral species) were 0.826 nM and 0.553 nM, respectively.

`COC[C@@H](C)N[C@H]1CC[C@H](Nc2cc(-c3cccc(NCC4(C#N)CC4)n3)c(F)cn2)CC1` [Compound 551]: the IC50 at Cdk9/cyclinT1 (TFA salt) was 0.0753 nM and 0.28 nM and 0.0939 nM; at Cdk9/cyclinT1 (neutral species) it was 0.299 nM and 0.303 nM and 0.654 nM.

On to `C[C@@](O)(CN[C@H]1CC[C@H](Nc2cc(-c3cccc(NCC4(C#N)CCOCC4)n3)ccn2)CC1)C(F)(F)F` [Compound 580], for which the IC50 at Cdk9/cyclinT1 (TFA salt) turned out to be 0.979 nM.

Regarding `N#CC1(CNc2cccc(-c3cc(N[C@H]4CC[C@H](N[C@@H]5CCCC[C@H]5O)CC4)ncc3Cl)n2)CCOCC1` [Compound 525], the IC50 at Cdk9/cyclinT1 (TFA salt) was determined as 0.542 nM.

`N#CC1(CNc2cccc(-c3cc(N[C@H]4CC[C@H](N5CC6(COC6)C5)CC4)ncc3Cl)n2)CCOCC1` [Compound 546]: the IC50 on Cdk9/cyclinT1 (neutral species) is 1.42 nM and 1.08 nM and 1.12 nM.

In the case of `CC(C)(O)CN[C@H]1CC[C@H](Nc2cc(-c3cncc(OCC4(C#N)CCOCC4)n3)c(Cl)cn2)CC1` [Compound 524], the IC50 at Cdk9/cyclinT1 (neutral species) was 0.85 nM.

For `N#CC1(CNc2cccc(-c3cc(N[C@H]4CC[C@@H](N5CCn6c(nnc6C(F)(F)F)C5)CC4)ncc3Cl)n2)CCOCC1` [Compound 530], the IC50 at Cdk9/cyclinT1 (neutral species) stood at 36.9 nM.

`N#CC1(CNc2cccc(-c3cc(N[C@H]4CC[C@H](NC[C@H](O)CF)CC4)ncc3Cl)n2)CCOCC1` [Compound 542]: the IC50 at Cdk9/cyclinT1 (TFA salt) stood at 0.168 nM.

For the compound `C[C@H](N[C@H]1CC[C@H](Nc2cc(-c3cccc(NCC4(C#N)CCOCC4)n3)c(Cl)cn2)CC1)[C@@H](C)O` [Compound 531], the IC50 on Cdk9/cyclinT1 (neutral species) turned out to be 0.471 nM.

Turning to `C[C@H](O)CN[C@H]1CC[C@H](Nc2cc(-c3cccc(NCC4(C#N)CCOCC4)n3)c(Cl)cn2)CC1` [Compound 554], the IC50 at Cdk9/cyclinT1 (neutral species) came to 0.395 nM.

Take `N#CC1(COc2cncc(-c3cc(N[C@H]4CC[C@H](N)CC4)ncc3F)n2)CCOCC1` [Compound 534]: on Cdk9/cyclinT1 (TFA salt), the IC50 came out at 0.471 nM.

For the compound `C[C@](O)(CN[C@H]1CC[C@H](Nc2cc(-c3cccc(NCC4(C#N)CCOCC4)n3)ccn2)CC1)C(F)(F)F` [Compound 579], the IC50 at Cdk9/cyclinT1 (TFA salt) worked out at 0.902 nM.

Take `N#CC1(COc2cncc(-c3cc(NC4CCCNCC4)ncc3Cl)n2)CCOCC1` (stereo not shown) [Compound 583]: the IC50 on Cdk9/cyclinT1 (neutral species) came out at 11 nM.

With `N#CC1(CNc2cccc(-c3cc(N[C@H]4CC[C@H](N[C@H]5CCCC[C@@H]5O)CC4)ncc3Cl)n2)CCOCC1` [Compound 523], the IC50 on Cdk9/cyclinT1 (TFA salt) was determined as 0.33 nM.

For the compound `[2H][C@@](C)(COC)N[C@H]1CC[C@H](Nc2cc(-c3cccc(NCC4(C#N)CCOCC4)n3)c(Cl)cn2)CC1` [Compound 596], at Cdk9/cyclinT1 (neutral species), the IC50 is < 1 nM.

On to `N#CC1(CNc2cccc(-c3cc(N[C@H]4CC[C@H](O)CC4)ncc3F)n2)CCOCC1` [Compound 576], for which the IC50 on Cdk9/cyclinT1 (TFA salt) turned out to be 0.137 nM.

With `COC[C@H](C)N[C@H]1CC[C@H](Nc2cc(-c3cccc(NCC4(C#N)CCOCC4)n3)c(F)cn2)CC1` [Compound 520], on Cdk9/cyclinT1 (TFA salt), the IC50 is 0.458 nM and 0.413 nM.

In the case of `N#CC1(CNc2cccc(-c3cc(N[C@H]4CC[C@H](NC5CC(F)(F)C5)CC4)ncc3Cl)n2)CCOCC1` [Compound 563], the IC50 at Cdk9/cyclinT1 (neutral species) came to 0.416 nM.

For the compound `CO[C@H]1CCN([C@H]2CC[C@H](Nc3cc(-c4cccc(NCC5(C#N)CCOCC5)n4)c(F)cn3)CC2)C1` [Compound 516], the IC50 at Cdk9/cyclinT1 (neutral species) was found to be 0.835 nM.

On to `N#CC1(CNc2cccc(-c3cc(N[C@H]4CC[C@H](NCCCO)CC4)ncc3Cl)n2)CCOCC1` [Compound 571], for which, at Cdk9/cyclinT1 (neutral species), the IC50 is 0.397 nM.
